In US20250109127A1, “METHODS OF USE OF PHENOXYPROPYLAMINE COMPOUNDS TO TREAT DEPRESSION” (Minerva Neurosciences, Inc., priority 2013, published 2025):
Values joined by “and” are separate entries in the source; they are usually repeats but may differ in a detail not shown here. Equal entries are not always repeated. Structures can show the parent of a compound that is named as a salt.

Tested on: norepinephrin release in the rat prefrontal cortex
Experiment: Microdialysis: norepinephrine release in prefrontal cortex after I.P. administration
Assay type: in vivo
Conditions: for Norepinephrin release, MEAN / Norepinephrin release, individual animals: 3 mg/kg IP; for Norepinephrin release, MEAN: n = 8; for Norepinephrin release, individual animals: per animal R#15,16,21,22,27,28,09,10; for Norepinephrin release, individual animals / NOREPINEPHRIN in dialysate, individual animals: hydrochloride; for NOREPINEPHRIN in dialysate, individual animals: 0.1 mg/kg
Method: The aim of the study was to evaluate, using microdialysis, the effects of an intraperitoneal (I.P.) administration in rats of three different doses of SON-117 on dopamine and its metabolites, serotonin and its metabolite (5-HIAA), and norepinephrine levels in prefrontal cortex.
Thirty-two adult male Wistar rats were used for the whole study (4 groups of eight animals planned for the study, Table 1).
Surgery was performed on rats weighing about 300 g at the beginning of the experiments. Rats were anaesthetized with Ketamine (50 mg/kg) & Xylazine (15 mg/kg) by intramuscular administration. The animals were placed in a stereotaxic apparatus in the flat-skull position at a constant setting of −3.3 mm between ear bars and the incisor bar. The animals were treated with a local anesthesic (xylocaine 1%, Astra Zeneca) and an analgesic (Temgesic, from Schering Plough, 0.05 mg/kg, s.c.). A rostrocaudal midline incision was made with a lancet to expose the dorsal skull surface. The “stereotaxic zero” was defined by the Bregma in accordance with Paxinos and Watson's atlas (1986). A hole was drilled in the skull with a drill and the meninges were pierced with a sterile needle to implant a CMA12 guide cannula which later received the dialysis probe.
Coordinates used for implanting guide cannula in prefrontal cortex from Bregma were anteroposterior 3.7 mm, mediolateral 0.8 mm, and dorsoventral −2 mm (top of the probe was at −5 mm). The guide cannula was fixed to the skull with two stainless steel screws (1.88 mm outside diameter) anchored. An application of dental cement was added. A plastic collar allowed each animal to be tethered to a Swivel assembly of the CMA 120 awake animal system. Following surgery, rats were kept in individual cages and allowed to recover for a minimum of 3-5 days before the experimentation. The rats were handled and put in plastic bowl for 10 min at least every day to habituate the animals to their new environment for the dialysis. An I.P. administration with saline was also performed every day.
Dialysis probes (CMA12/3 mm, membrane, 20 kD cut-off, Carnegie Medicine, Stockholm, Sweden), were carefully washed before inserting into the guide cannula. The wash was performed with the artificial cerebrospinal fluid (aCSF) medium (NaCl 147 mM, KCl 2.7 mM, CaCl2 1.2 mM, MgCl2 0.85 mM) at room temperature. The dialysis system was then equilibrated at 20° C. at a perfusion rate of 1 μl/min with a Carnegie pump (CMA100). All catheters (FEP tubing, internal volume of 1.2 μl/10 cm, and tubing adaptors) used for microdialysis were treated in the same conditions.
The probes duly prepared were inserted into the guide cannula and the CMA120 Swivel assembly secured to the animal using a plastic collar. Flow through the dialysis probe with aCSF was maintained at a rate of 1 μl/min during the whole experimentation. The first four fractions (corresponding to 2 hours) were discarded to avoid the effects of parenchymal disturbance and to ensure that an approximate steady-state level was reached. Fractions were then collected over a period of 8.5 h during which time the animals remained quiet. The dialysates were automatically collected with an autosampler (microfraction collector CMA 140, Carnegie Medicin) and stored at −80° C. until analysis. […] Perfusion was then maintained for 7 hours with aCSF. The dialysates (30 μl) were collected into 300 μl vials, transferred into dry ice and then kept frozen (−80° C.) until analysis. Frozen samples were shipped to a partner for analysis. At the end of the microdialysis study, a PBS with colored ink was perfused through the probe in order to visualize the dialyzed area.
Catecholamine assay: Concentrations of dopamine, DOPAC, HVA, 5-HIAA, 5-HT, and norepinephrin were determined for each sample by HPLC coupled with electrochemical detection. […]

[1] = SON-117 0.1 mg/kg I.P., T0-T30 min
[2] = SON-117 0.1 mg/kg I.P., T30-T1 h

Cc1nnc(-c2cc3c(OC[C@@H](O)CN4CCC(c5ccc(Cl)c(Cl)c5)CC4)cccc3o2)o1 [SON-117, (S)-1-(4-(3,4-dichlorophenyl)piperidino)-3-(2-(5-methyl-1,3,4-oxadiazol-2-yl)benzo(b)furan-4-yloxy)-2-propanol hydrochloride]
Norepinephrin release, MEAN (T3 h 30-T4 h): 96.91 % of respective basal | Norepinephrin release, individual animals (T3 h 30-T4 h): 92.25 % of respective basal and 96.09 % of respective basal and 81.54 % of respective basal and 98.50 % of respective basal and 84.78 % of respective basal and 103.12 % of respective basal and 98.12 % of respective basal and 120.87 % of respective basal | Norepinephrin release, MEAN (T3 h-T3 h 30): 98.58 % of respective basal | Norepinephrin release, individual animals (T3 h-T3 h 30): 105.14 % of respective basal and 113.23 % of respective basal and 79.41 % of respective basal and 94.38 % of respective basal and 76.17 % of respective basal and 100.68 % of respective basal and 93.69 % of respective basal and 125.93 % of respective basal | Norepinephrin release, MEAN (T4 h 30-T5 h): 97.28 % of respective basal | Norepinephrin release, individual animals (T4 h 30-T5 h): 58.60 % of respective basal and 125.43 % of respective basal and 101.68 % of respective basal and 87.38 % of respective basal and 80.27 % of respective basal and 104.69 % of respective basal and 112.63 % of respective basal and 107.59 % of respective basal | Norepinephrin release, MEAN (T4 h-T4 h 30): 95.48 % of respective basal | Norepinephrin release, individual animals (T4 h-T4 h 30): 62.13 % of respective basal and 91.42 % of respective basal and 88.64 % of respective basal and 99.58 % of respective basal and 82.26 % of respective basal and 99.52 % of respective basal and 111.02 % of respective basal and 129.30 % of respective basal | Norepinephrin release, MEAN (T5 h 30-T6 h): 96.42 % of respective basal | Norepinephrin release, individual animals (T5 h 30-T6 h): 82.50 % of respective basal and 100.18 % of respective basal and 65.95 % of respective basal and 85.98 % of respective basal and 75.91 % of respective basal and 86.97 % of respective basal and 139.22 % of respective basal and 134.66 % of respective basal | Norepinephrin release, MEAN (T5 h-T5 h 30): 90.72 % of respective basal | Norepinephrin release, individual animals (T5 h-T5 h 30): 87.73 % of respective basal and 105.81 % of respective basal and 60.65 % of respective basal and 89.96 % of respective basal and 73.79 % of respective basal and 96.43 % of respective basal and 137.91 % of respective basal and 93.51 % of respective basal | Norepinephrin release, MEAN (T6 h 30-T7 h): 97.32 % of respective basal | Norepinephrin release, individual animals (T6 h 30-T7 h): 66.13 % of respective basal and 133.14 % of respective basal and 93.99 % of respective basal and 95.87 % of respective basal and 77.85 % of respective basal | Norepinephrin release, MEAN (T6 h-T6 h 30): 98.56 % of respective basal | Norepinephrin release, individual animals (T6 h-T6 h 30): 78.64 % of respective basal and 120.89 % of respective basal and 90.25 % of respective basal and 94.88 % of respective basal and 80.09 % of respective basal and 93.58 % of respective basal and 131.29 % of respective basal | Norepinephrin release, MEAN (T-30 min-T0 (before administration)): 97.42 % of respective basal | Norepinephrin release, MEAN (T-1 h 30-T-1 h (before administration)): 102.02 % of respective basal | Norepinephrin release, MEAN (T-1 h-T-30 min (before administration)): 100.56 % of respective basal | NE post injection levels vs mean pre-injection value (SON-117 0.1 mg/kg I.P.): no statistically significant differences | NOREPINEPHRIN in dialysate, MEAN [1]: 82.85 % of respective basal | NOREPINEPHRIN in dialysate, individual animals [1]: 92.79 % of respective basal and 99.624 % of respective basal and 74.34 % of respective basal and 64.40 % of respective basal and 84.29 % of respective basal and 81.69 % of respective basal | NOREPINEPHRIN in dialysate, MEAN [2]: 95.58 % of respective basal | NOREPINEPHRIN in dialysate, individual animals [2]: 105.21 % of respective basal and 96.78 % of respective basal and 87.94 % of respective basal and 101.10 % of respective basal and 90.37 % of respective basal and 88.40 % of respective basal and 114.24 % of respective basal and 80.61 % of respective basal | NOREPINEPHRIN in dialysate, MEAN (SON-117 0.1 mg/kg I.P., T1 h 30-T2 h): 81.28 % of respective basal
